Key:
Format in all cases: physicochemical
[1] = Cohesion evaluation
From the text: Different options were explored to improve the cohesion property of the tablet, for example, by change of lactose and mannitol grades (standard grade in place of Spray Dried grade), using anhydrous lactose in place of monohydrate lactose Spray-Dried, using different ratios of lactose/mannitol, or using pregelatinized corn starch instead of mannitol, but only a decrease of tablet cohesion was observed.

[2] = pKa measurement (Sirius T3, UV metric method); settings: MeOH as solvent, Yasuda-Shedlovsky extrapolation, ionic strength 0.176M, 28.9° C., to be taken as reference (effective range pH 2-12)
Protocol: pKa. The pKa was measured by a Sirius pKa log P/D tester (model: T3) with a UV detector (UV metric method) using MeOH as solvent.
In addition, the pKa value of Compound (1) starting material was measured to be 1.68 by a Sirius pKa log P/D tester (model: T3) with a UV detector (UV metric method) using MeOH as solvent. The pKa value should be taken as reference because the effective pH range of UV metric method is pH 2-12.

[3] = Solid form screening; settings: 96 solid form screening experiments
Protocol: A total of 96 solid form screening experiments were performed using different crystallization or solid transformation methods.

CC(C)(C(=O)N1CCOc2c(C#N)cncc2C1)C(F)F [Compound 1, 4-(3,3-difluoro-2,2-dimethyl-propanoyl)-3,5-dihydro-2H-pyrido[3,4-f][1,4]oxazepine-9-carbonitrile]
cohesion property of the drug substance [1]: very low cohesion property | pKa [2]: 1.68 | crystal forms observed from screening [3]: Only one crystal form
